Results published in patent US20170008921A1, “C-3 NOVEL TRITERPENONE WITH C-28 REVERSE AMIDE DERIVATIVES AS HIV INHIBITORS” (HETERO RESEARCH FOUNDATION, priority 2015, published 2017).
Where two headings read alike, the source gives them in different places.

Legend:
cells = assay: Cyto-toxicity (MTT assay); format: cell-based
pNL4-3 WT = assay: Antiviral activity against pNL4-3 WT strain in MT4 cells (p24 estimation); format: cell-based, HIV-1; conditions: 4 days
Protocol: (§1) MT4 cells were Transfected with HIV-1 Plasmid (pNL4-3-WT & V7A) (Cells were incubating with required number of TCID50 of HIV-1 for 1.5 h at 37° C.). After infection, the infected cells were plated at the concentration of 3×10^4 cells per well in 96 well plate. Test compound was added to the test plate in defined format with the final concentration of DMSO is not more than 1%. Incubation was carried out in CO2 incubator for 4 days for viral infection. At the end of incubation period an aliquot from each well was taken for p24 estimation. p24 estimation was carried out using Advance biosciences kit as per the procedure detailed by supplier.

[1] = Single dose oral pharmacokinetic study; format: in vivo; conditions: Mice oral PK @30 mg/kg; plasma; vehicle 10% Solutol+20% PEG
How it was run: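 Rats or mice dosed orally at 30 mg/kg in 10% Solutol+20% PEG. Acetonitrile precipitation, then LC-MS/MS quantification for PK parameters.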

pNL4-3 V7A = assay: Antiviral activity against pNL4-3 V7A strain in MT4 cells (p24 estimation); format: cell-based, HIV-1; conditions: 4 days
Protocol: as §1

HIV-1 strain 92HT599 = assay: Antiviral activity against HIV-1 strain 92HT599 in MT2 cells (p24 estimation); format: cell-based; conditions: HIV-1 92HT599, ~96 hours
Protocol: MT2 cells were infected with HIV-1 strain 92HT599 (10 TCID 50/30000 cells). The infected cells were plated at the concentration of ˜30,000 cells per well in 96 well plate. Test compound was added to the micro plate in defined format with the final concentration of DMSO (vehicle) is not more than 1%. Incubation was carried out in CO2 incubator for ˜96 hours for viral infection. At the end of incubation period an aliquot from each well was taken for p24 estimation. The quantitation of p24 is an index for antiviral activity of the compound. Percent inhibition was calculated with reference to control values (vehicle controls). p24 estimation was carried out using Advance biosciences kit as per the procedure detailed by supplier.

[2] = 0% serum binding assay, read-out: IC50 0% serum
[3] = 40% serum binding assay, read-out: IC50 40% serum

| IC50 (HIV-1 strain 92HT599; [2]) | IC50 (HIV-1 strain 92HT599; [3]) | SMILES | Cytotoxicity % viability (cells; 0.01 μM, MTT, 4 days (Table 3)) | Cytotoxicity % viability (cells; 0.1 μM, MTT, 4 days (Table 3)) | Cytotoxicity % viability (cells; 1 μM, MTT, 4 days (Table 3)) | IC50 (pNL4-3 WT) | AUC(0-t) [1] | Cmax [1] | IC50 (pNL4-3 V7A) | Cytotoxicity % viability (cells; 0.01 µM) | Cytotoxicity % viability (cells; 0.1 µM) | Cytotoxicity % viability (cells; 1 µM) |
| --- | --- | --- | --- | --- | --- | --- | --- | --- | --- | --- | --- | --- |
| < 3 nM | < 50 nM | CC(C)C1=C2[C@H]3CC[C@@H]4[C@@]5(C)CC[C@H](OC(=O)[C@H]6C[C@@H](C(=O)O)C6(C)C)C(C)(C)[C@@H]5CC[C@@]4(C)[C@]3(C)CC[C@@]2(NC(=O)C(C)(C)N)CC1=O.Cl [Example 74, (1R,3S)-3-((((3aR,5aR,5bR,7aR,9S,11aR,11bR,13aS)-3a-(2-amino-2-methylpropanamido)-1-isopropyl-5a,5b,8,8,11a-pentamethyl-2-oxo-3,3a,4,5,5a,5b, 6,7,7a,8,9,10,1111a,11b,12,13,13a-octadecahydro-2H-cyclopenta[a]chrysen-9-yl)oxy)carbonyl)-2,2-dimethylcyclobutane-1-carboxylic acid hydrochloride] | – | – | – | – | – | – | – | 61% | 14% | 19% |
| < 3 nM | 50 to 200 nM | CC(C)C1=C2[C@H]3CC[C@@H]4[C@@]5(C)CC[C@H](OC(=O)[C@H]6C[C@@H](C(=O)O)C6(C)C)C(C)(C)[C@@H]5CC[C@@]4(C)[C@]3(C)CC[C@@]2(NC(=O)C(C)(C)NC(=O)[C@@H]2CCCN2)CC1=O.Cl [Example 76, (1R,3S)-3-((((3aR,5aR,5bR,7aR,9S,11aR,11bR,13aS)-1-isopropyl-5a,5b,8,8,11a-pentamethyl-3a-(2-methyl-2-((S)-pyrrolidine-2-carboxamido)propanamido)-2-oxo-3,3a,4,5,5a,5b,6,77a,8,9,10,11,11a,11b,12,13,13a-octadecahydro-2H-cyclopenta[a]chrysen-9-yl)oxy)carbonyl)-2,2-dimethylcyclobutane-1-carboxylic acid hydrochloride] | – | – | – | – | – | – | – | 59% | 6% | 6% |

| SMILES | IC50 (HIV-1 strain 92HT599; [2]) | IC50 (HIV-1 strain 92HT599; [3]) | Cytotoxicity % viability (cells; 0.01 μM, MTT, 4 days (Table 3)) | Cytotoxicity % viability (cells; 0.1 μM, MTT, 4 days (Table 3)) | Cytotoxicity % viability (cells; 1 μM, MTT, 4 days (Table 3)) | IC50 (pNL4-3 WT) | AUC(0-t) [1] | Cmax [1] | IC50 (pNL4-3 V7A) | Cytotoxicity % viability (cells; 0.01 µM) | Cytotoxicity % viability (cells; 0.1 µM) | Cytotoxicity % viability (cells; 1 µM) |
| --- | --- | --- | --- | --- | --- | --- | --- | --- | --- | --- | --- | --- |
| CC(C)C1=C2[C@H]3CC[C@@H]4[C@@]5(C)CC[C@H](OC(=O)[C@H]6C[C@@H](C(=O)O)C6(C)C)C(C)(C)[C@@H]5CC[C@@]4(C)[C@]3(C)CC[C@@]2(NC(=O)C(C)(C)NS(=O)(=O)c2ccc(Cl)cc2)CC1=O [Example 65, (1R,3S)-3-((((3aR,5aR,5bR,7aR,9S,11aR,11bR,13aS)-3a-(2-((4-chlorophenyl)sulfonamido)-2-methylpropanamido)-1-isopropyl-5a,5b,8,8,11a-pentamethyl-2-oxo-3,3a,4,5,5a,5b,6,7,7a,8,91,111,11a,11b,12,13,13a-octadecahydro-2H-cyclopenta[a]chrysen-9-yl)oxy)carbonyl)-2,2-dimethylcyclobutane-1-carboxylic acid] | < 3 nM | < 50 nM | 27% | 3% | 2% | > 10 nM | 145.21 µg·h/mL | 7.383 µg/mL | > 50 nM | – | – | – |
